Assay results as given in PubChem BioAssay (NCI).
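Following 48 hours of exposure in 96-well plates, responses at five concentrations were used to interpolate endpoints linearly. Abbreviation: GI50, concentration required for 50% inhibition of growth. TGI: concentration producing complete growth inhibition.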

Experiments:
Assay in all cases: NCI anticancer screen, dose series, 48 h; in the data active = GI50 below about 0.43 µM; inactive = the rest
786-0 renal = system: 786-0 renal
A498 renal = system: A498 renal
A549 NSCLC = system: A549 NSCLC
ACHN renal = system: ACHN renal
BT-549 breast = system: BT-549 breast
CAKI-1 renal = system: CAKI-1 renal
CCRF-CEM leukemia = system: CCRF-CEM leukemia
COLO 205 colon = system: COLO 205 colon
DU-145 prostate = system: DU-145 prostate
EKVX NSCLC = system: EKVX NSCLC
HCC-2998 colon = system: HCC-2998 colon
HCT-116 colon = system: HCT-116 colon
HCT-15 colon = system: HCT-15 colon
HL-60(TB) leukemia = system: HL-60(TB) leukemia
HOP-62 NSCLC = system: HOP-62 NSCLC
HOP-92 NSCLC = system: HOP-92 NSCLC
HS 578T breast = system: HS 578T breast
HT29 colon = system: HT29 colon
IGROV1 ovarian = system: IGROV1 ovarian
K-562 leukemia = system: K-562 leukemia
KM12 colon = system: KM12 colon
LOX IMVI melanoma = system: LOX IMVI melanoma
M14 melanoma = system: M14 melanoma
MALME-3M melanoma = system: MALME-3M melanoma
MCF7 breast = system: MCF7 breast
MDA-MB-231 breast = system: MDA-MB-231 breast
MDA-MB-435 = system: MDA-MB-435
MOLT-4 leukemia = system: MOLT-4 leukemia
NCI-H226 lung = system: NCI-H226 lung
NCI-H23 lung = system: NCI-H23 lung
NCI-H460 lung = system: NCI-H460 lung
NCI-H522 lung = system: NCI-H522 lung
NCI/ADR-RES ovarian = system: NCI/ADR-RES ovarian
OVCAR-3 ovarian = system: OVCAR-3 ovarian
OVCAR-4 ovarian = system: OVCAR-4 ovarian
OVCAR-5 ovarian = system: OVCAR-5 ovarian
OVCAR-8 ovarian = system: OVCAR-8 ovarian
PC-3 prostate = system: PC-3 prostate
RPMI-8226 leukemia = system: RPMI-8226 leukemia
RXF 393 renal = system: RXF 393 renal
SF-268 CNS = system: SF-268 CNS
SF-295 CNS = system: SF-295 CNS
SF-539 CNS = system: SF-539 CNS
SK-MEL-2 melanoma = system: SK-MEL-2 melanoma
SK-MEL-28 melanoma = system: SK-MEL-28 melanoma
SK-MEL-5 melanoma = system: SK-MEL-5 melanoma
SK-OV-3 ovarian = system: SK-OV-3 ovarian
SN12C renal = system: SN12C renal
SNB-19 CNS = system: SNB-19 CNS
SNB-75 CNS = system: SNB-75 CNS
SR leukemia = system: SR leukemia
SW-620 colon = system: SW-620 colon
T-47D breast = system: T-47D breast
TK-10 renal = system: TK-10 renal
U251 CNS = system: U251 CNS
UACC-257 melanoma = system: UACC-257 melanoma
UACC-62 melanoma = system: UACC-62 melanoma
UO-31 renal = system: UO-31 renal

Oc1c(CN2CCOCC2)cc(COCc2ccccc2)c2cccnc12
8.56 µM: TGI (NCI-H522 lung)
17.7 µM: TGI (MOLT-4 leukemia)
5.43 µM: TGI (SK-MEL-5 melanoma)
inactive: GI50 (786-0 renal) 2.67 µM | GI50 (A498 renal) 16.5 µM | GI50 (A549 NSCLC) 4.22 µM | GI50 (ACHN renal) 0.571 µM | GI50 (BT-549 breast) 3.19 µM | GI50 (CAKI-1 renal) 0.555 µM | GI50 (CCRF-CEM leukemia) 0.494 µM | GI50 (COLO 205 colon) 16 µM | GI50 (DU-145 prostate) 4.73 µM | GI50 (EKVX NSCLC) 2.88 µM | GI50 (HCC-2998 colon) 3.28 µM | GI50 (HCT-116 colon) 2.82 µM | GI50 (HL-60(TB) leukemia) 2.38 µM | GI50 (HOP-62 NSCLC) 1.48 µM | GI50 (HOP-92 NSCLC) 41.6 µM | GI50 (HS 578T breast) 19.4 µM | GI50 (HT29 colon) 19.8 µM | GI50 (IGROV1 ovarian) 3.85 µM | GI50 (K-562 leukemia) 2.74 µM | GI50 (KM12 colon) 3.73 µM | GI50 (LOX IMVI melanoma) 1.19 µM | GI50 (M14 melanoma) 1.59 µM | GI50 (MALME-3M melanoma) 2.84 µM | GI50 (MCF7 breast) 2.07 µM | GI50 (MDA-MB-231 breast) 6.48 µM | GI50 (MDA-MB-435) 6.5 µM | GI50 (MOLT-4 leukemia) 2.57 µM | GI50 (NCI-H226 lung) 4.65 µM | GI50 (NCI-H23 lung) 3.25 µM | GI50 (NCI-H460 lung) 0.756 µM | GI50 (NCI-H522 lung) 1.79 µM | GI50 (OVCAR-3 ovarian) 2.49 µM | GI50 (OVCAR-4 ovarian) 1.97 µM | GI50 (OVCAR-5 ovarian) 5.08 µM | GI50 (OVCAR-8 ovarian) 2.8 µM | GI50 (PC-3 prostate) 7.34 µM | GI50 (RPMI-8226 leukemia) 4.06 µM | GI50 (RXF 393 renal) 3.25 µM | GI50 (SF-268 CNS) 1.95 µM | GI50 (SF-295 CNS) 3.68 µM | GI50 (SF-539 CNS) 2.24 µM | GI50 (SK-MEL-2 melanoma) 3.22 µM | GI50 (SK-MEL-28 melanoma) 2.79 µM | GI50 (SK-MEL-5 melanoma) 2.03 µM | GI50 (SK-OV-3 ovarian) 3 µM | GI50 (SN12C renal) 5.29 µM | GI50 (SNB-19 CNS) 4.28 µM | GI50 (SNB-75 CNS) 10.4 µM | GI50 (SR leukemia) 0.681 µM | GI50 (SW-620 colon) 3.61 µM | GI50 (T-47D breast) 2.63 µM | GI50 (TK-10 renal) 3.75 µM | GI50 (U251 CNS) 2.77 µM | GI50 (UACC-257 melanoma) 2.58 µM | GI50 (UACC-62 melanoma) 2.24 µM
17.9 µM: TGI (SR leukemia)
64 µM: TGI (A549 NSCLC)
67.2 µM: TGI (COLO 205 colon)
7.32 µM: TGI (HL-60(TB) leukemia)
13.3 µM: TGI (HCT-15 colon)
active: GI50 (HCT-15 colon) 0.286 µM | GI50 (NCI/ADR-RES ovarian) 0.287 µM | GI50 (UO-31 renal) 0.351 µM
53.3 µM: TGI (NCI-H460 lung)
> 100 µM: TGI (A498 renal) | TGI (ACHN renal) | TGI (CAKI-1 renal) | TGI (CCRF-CEM leukemia) | TGI (DU-145 prostate) | TGI (EKVX NSCLC) | TGI (HCC-2998 colon) | TGI (HCT-116 colon) | TGI (HOP-62 NSCLC) | TGI (HOP-92 NSCLC) | TGI (HS 578T breast) | TGI (IGROV1 ovarian) | TGI (K-562 leukemia) | TGI (KM12 colon) | TGI (MALME-3M melanoma) | TGI (MCF7 breast) | TGI (MDA-MB-231 breast) | TGI (MDA-MB-435) | TGI (NCI-H23 lung) | TGI (OVCAR-3 ovarian) | TGI (OVCAR-4 ovarian) | TGI (OVCAR-5 ovarian) | TGI (OVCAR-8 ovarian) | TGI (PC-3 prostate) | TGI (RPMI-8226 leukemia) | TGI (SF-268 CNS) | TGI (SK-MEL-28 melanoma) | TGI (SN12C renal) | TGI (SNB-19 CNS) | TGI (SNB-75 CNS) | TGI (SW-620 colon) | TGI (T-47D breast) | TGI (TK-10 renal) | TGI (U251 CNS)
30.6 µM: TGI (SF-295 CNS)
72.7 µM: TGI (RXF 393 renal)
65.4 µM: TGI (HT29 colon)
7.84 µM: TGI (M14 melanoma) | TGI (UACC-257 melanoma)
1.88 µM: TGI (NCI/ADR-RES ovarian)
81.8 µM: TGI (BT-549 breast)
9.36 µM: TGI (UO-31 renal)
11.5 µM: TGI (SF-539 CNS)
36.8 µM: TGI (NCI-H226 lung)
8.91 µM: TGI (UACC-62 melanoma)
10.4 µM: TGI (LOX IMVI melanoma)
22.2 µM: TGI (SK-OV-3 ovarian)
59.1 µM: TGI (SK-MEL-2 melanoma)
19.2 µM: TGI (786-0 renal)
